From patent publication US6995243B2, “Antibodies that recognize and bind phosphorylated human glucocorticoid receptor and methods of using same” (New York University, priority 2002, dated 2006)
“Also recorded” adds a separate entry of the source. Values belong to the compound of their own block, whether it stands above or below them.

Experiments:
[1] = target: total GR (Homo sapiens, UniProt P04150); conditions: 12 h continuous hormone treatment, 100 nM
Description: FIGS. 7A–7C are immunoblots and graph showing the kinetics of S203 and S211 phosphorylation in response to Dex treatment. U2OS-hGR cells were treated with ethanol (−) or Dex (100 nM) for the time indicated. Whole cell lysates were prepared, normalized and analyzed by immunoblotting with phospho-S203, phospho-S211 or HA antibodies. Immunoblot images of GR phosphorylated at S203 and S211 in the first hour of Dex treatment (FIG. 7A) or throughout 12 h of continuous Dex treatment (FIG. 7B); the total GR in each sample was determined by immunoblotting for HA. In FIG. 7C, quantitative analysis of immunoblot results in panel B normalized to total GR detected by HA. The data shown are from a single experiment that is representative of at least three independent experiments. […]
Cell extracts or immunoprecipitates containing GR were separated by 10% SDS-polyacrylamide gel electrophoresis (PAGE) and were transferred to Immobilon paper (Millipore Corp., Bedford, Mass.) at 110V for 80 min in Tris-Glycine transfer buffer. […] Endogenous GR was detected using the N499 polyclonal antibody, raised against residues 1–499 of the human GR. […] Quantitative analysis of immunoblots was performed using the NIH image software package (version 1.62).

[2] = target: T1, human GR phosphorylated at S211 (Homo sapiens, UniProt P04150); assay: Immunoblot of GR S211 phosphorylation in U2OS-hGR cell extracts; type: cell-based; conditions: 1 h; for GR phosphorylation at S211: ligand 100 nM, U2OS-hGR cells
T1 construct: expressed in transfected cells
T1 sequence (P04150 1-777): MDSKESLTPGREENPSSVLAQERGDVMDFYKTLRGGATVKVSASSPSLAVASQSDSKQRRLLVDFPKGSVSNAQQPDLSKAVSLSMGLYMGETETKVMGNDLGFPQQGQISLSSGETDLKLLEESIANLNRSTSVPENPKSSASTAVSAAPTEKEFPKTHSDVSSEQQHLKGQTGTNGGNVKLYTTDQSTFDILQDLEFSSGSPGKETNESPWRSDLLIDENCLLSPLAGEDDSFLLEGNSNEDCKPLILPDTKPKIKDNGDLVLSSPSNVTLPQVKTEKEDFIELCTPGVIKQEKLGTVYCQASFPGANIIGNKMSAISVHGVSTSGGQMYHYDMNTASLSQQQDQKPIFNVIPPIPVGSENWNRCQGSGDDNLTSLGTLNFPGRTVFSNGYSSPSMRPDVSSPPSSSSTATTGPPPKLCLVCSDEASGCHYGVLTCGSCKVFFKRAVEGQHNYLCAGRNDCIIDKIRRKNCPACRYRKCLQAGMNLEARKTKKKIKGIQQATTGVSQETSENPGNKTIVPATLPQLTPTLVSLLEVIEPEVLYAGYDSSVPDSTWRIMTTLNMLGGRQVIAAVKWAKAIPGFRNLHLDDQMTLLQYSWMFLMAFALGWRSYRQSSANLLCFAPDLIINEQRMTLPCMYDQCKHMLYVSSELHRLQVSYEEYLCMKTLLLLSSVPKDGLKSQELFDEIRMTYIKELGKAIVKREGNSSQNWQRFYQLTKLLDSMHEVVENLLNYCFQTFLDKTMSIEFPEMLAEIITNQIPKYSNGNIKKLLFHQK
Description: In FIG. 6A, U20S-hGR were treated with ethanol (−) or the ligands indicated (100 nM) for 1 hour and whole cell extracts were prepared. For antagonism experiments, a 10-fold excess of RU486 (1 μM) or ZK299 (1 μM) were added simultaneously with 100 nM Dex for 1 h prior to cell lysis. Equal amounts of protein from each treatment were analyzed by immunoblotting with either phospho-S203, phospho-S211 or HA antibodies, reflective of the amount of total GR present in each lane.
Cells were placed on ice, washed twice in phosphate-buffer saline (PBS), lysed in 0.5 ml of buffer containing 50 mM HEPES, pH 7.5, 150 mM NaCl, 1 mM EDTA, 1 mM EGTA, 1 mM NaF, 1% Triton X-100, 10% glycerol and additional protease and phosphatase inhibitors: 1 mM PMSF, 20 mM β-glycerophosphate, 8 mM sodium pyrophosphate, 1 μg/ml leupeptin, pepstatin A and aprotinin (Roche). […] The soluble supernatants were normalized for total protein concentration using the Bio-Rad protein assay (Bio-Rad Laboratories, Hercules, Calif.) and the samples were boiled for 3 min in 2×SDS sample buffer and stored at −20° C.
Cell extracts or immunoprecipitates containing GR were separated by 10% SDS-polyacrylamide gel electrophoresis (PAGE) and were transferred to Immobilon paper (Millipore Corp., Bedford, Mass.) at 110V for 80 min in Tris-Glycine transfer buffer. The membranes were blocked overnight in 5% bovine serum albumin (BSA) in Tris-buffered saline, pH 7.4 (TBS) (blocking solution) at 4° C., then were incubated in the blocking buffer with primary antibody at room temperature (RT) for 2–4 h using 1:1,000 and 1:10,000 dilution of serum for phospho-S211 (Ab353) and phospho-S203 (Ab211), respectively. […] The membranes were washed three times for 10 min in TBS/0.1% Triton X-100 and twice in TBS and incubated for 1 h at RT with 0.2 μg/ml protein A conjugated to horseradish peroxidase (HRP) (Kirkegaard and Perry Laboratories, Gaithersburg, Md.). For blots using the anti-HA-tag monoclonal antibody (α-HA; Roche), an HRP-conjugated goat-anti-mouse IgG secondary antibody was used. Blots were then washed three times for 10 min in TBS-0.1% Triton X-100, twice in TBS and developed using enhanced chemiluminescence (ECL) according to manufacturer's instructions (Amersham Pharmacia Biotech Inc., Piscataway, N.J.).

[3] = system: GR-mediated transcriptional activation; assay: MMTV-luciferase reporter GR transcriptional activation in U2OS-hGR cells; type: cell-based, human; conditions: ligand 100 nM, 1 h
Description: In FIG. 6B, U2OS-hGR cells were transiently transfected with the MMTV-luciferase reporter construct along with pCMV-lacZ as an internal control. After 16 h, the cells were treated with ligands indicated (100 nM) for 1 h, conditions identical to those used for the immunoblot analysis, and luciferase activity determined.

[4] = target: T2, human GR phosphorylated at S203 (Homo sapiens, UniProt P04150); conditions: ligand 100 nM, 1 h, U2OS-hGR cells
T2 sequence (P04150 1-777): T1 sequence (P04150 1-777)
Description: In FIG. 6A, U20S-hGR were treated with ethanol (−) or the ligands indicated (100 nM) for 1 hour and whole cell extracts were prepared. For antagonism experiments, a 10-fold excess of RU486 (1 μM) or ZK299 (1 μM) were added simultaneously with 100 nM Dex for 1 h prior to cell lysis. Equal amounts of protein from each treatment were analyzed by immunoblotting with either phospho-S203, phospho-S211 or HA antibodies, reflective of the amount of total GR present in each lane. In FIG. 6B, U2OS-hGR cells were transiently transfected with the MMTV-luciferase reporter construct along with pCMV-lacZ as an internal control. After 16 h, the cells were treated with ligands indicated (100 nM) for 1 h, conditions identical to those used for the immunoblot analysis, and luciferase activity determined.
Cells were placed on ice, washed twice in phosphate-buffer saline (PBS), lysed in 0.5 ml of buffer containing 50 mM HEPES, pH 7.5, 150 mM NaCl, 1 mM EDTA, 1 mM EGTA, 1 mM NaF, 1% Triton X-100, 10% glycerol and additional protease and phosphatase inhibitors: 1 mM PMSF, 20 mM β-glycerophosphate, 8 mM sodium pyrophosphate, 1 μg/ml leupeptin, pepstatin A and aprotinin (Roche). Lysates were centrifuged at 12,000 rpm for 15 min at 4° C. […]

[5] = target: T3, GR (Homo sapiens, UniProt P04150); conditions: cited from earlier work
T3 sequence (P04150 1-777): T1 sequence (P04150 1-777)

Compound: C[C@@H]1C[C@H]2[C@@H]3CCC4=CC(=O)C=C[C@]4(C)[C@@]3(F)[C@@H](O)C[C@]2(C)[C@@]1(O)C(=O)CO [Dex, dexamethasone]
- Reduction of total GR [1]: ~80%

Compound: C[C@]12C=CC(=O)C=C1CC[C@@H]1[C@@H]2[C@@H](O)C[C@@]2(C)[C@H]1CC[C@]2(O)C(=O)CO [Prednisolone]
- GR phosphorylation at S211 [2]: promoted S211 phosphorylation; also recorded: induced robust GR phosphorylation at S211
- GR transcriptional activation (MMTV-luciferase) [3]: pattern mirrored in the GR transcriptional activation assay

- Blocking of Dex-dependent GR phosphorylation ([2]; 10-fold molar excess (1 μM) added with 100 nM Dex): not as effective
- GR phosphorylation at S211 [2]: almost no effect
- GR phosphorylation at S203 [4]: almost no effect
Compound: CN(C)c1ccc([C@H]2C[C@]3(C)[C@@H](CC[C@]3(O)CCCO)[C@@H]3CCC4=CC(=O)CCC4=C32)cc1 [ZK299]

Compound: C=C1[C@@H](O)[C@@H]2O[C@]3(CC[C@H](/C=C/[C@@H](C)[C@@H]4CC(C)=C[C@@]5(O[C@H](C[C@@](C)(O)C(=O)O)CC[C@H]5O)O4)O3)CC[C@H]2O[C@@H]1[C@@H](O)C[C@H](C)[C@H]1O[C@@]2(CCCCO2)CC[C@H]1C [okadaic acid]
- Effect on GR reported in the literature [5]: results in GR hyperphosphorylation
